Test results from patent US7244765B2, “Guanylhydrazone salts, compositions, processes of making and methods of using” (Cytokine Pharmasciences, Inc, priority 2004, dated 2007).
Where a name gives a salt, the structure may show the parent alone.

Assay: Solubility test of Semapimod salts (sonication at room temperature, filtration, HPLC against a Semapimod-4 HCl/4 H2O standard)
Format: physicochemical
Conditions: for Solubility in H2O: sonicated at room temperature, Nylon syringe filter, HPLC vs standard from Semapimod-4 HCl/4 H2O
Method: The product isolated as Semapimod-2 HCl/4 H2O was added to ca. 2 mL of solvents (H2O, 5% Dextrose solution, PBS, and 0.9% NaCl solution), and was sonicated at room temperature until the solid suspended in the solution. The mixture was passed through a Nylon syringe filter, and then 0.5 mL of the filtrate was diluted with MeOH before injection into the HPLC. […] For reference purpose, the solubility of Semapimod-4 HCl/4 H2O was determined according to the previous procedure.
The Semapimod salts mentioned in the above table were subjected to solubility tests using the same procedure outlined above.

| Solubility in 5% Dextrose (5% Dextrose solution, room temperature, HPLC vs standard) | Solubility in H2O | Structure (SMILES) |
| --- | --- | --- |
| 13.44 mg/mL | ca. 9.54 mg/mL | CC(=NNC(=N)N)c1cc(NC(=O)CCCCCCCCC(=O)Nc2cc(C(C)=NNC(=N)N)cc(C(C)=NNC(=N)N)c2)cc(C(C)=NNC(=N)N)c1.Cl.Cl.O.O.O.O [Semapimod-2 HCl/4 H2O] |
|  | 14.15 mg/mL | C/C(=N\NC(=N)N)c1cc(NC(=O)CCCCCCCCC(=O)Nc2cc(/C(C)=N/NC(=N)N)cc(/C(C)=N/NC(=N)N)c2)cc(/C(C)=N/NC(=N)N)c1 [Semapimod-4 HCl/4 H2O, reference compound] |
